Results taken from article PMC7838189, “Natural podophyllotoxin analog 4DPG attenuates EMT and colorectal cancer progression via activation of checkpoint kinase 2” (Cell Death Discovery, 2021).
“And” between values parts separate entries of the source, which are not always exact repeats. Equal entries are not always repeated.

Columns and labels:
SW-620/5-FU-R cells [1] = experiment: Cellular fractionation and western blotting of p53 and Vimentin; format: cell-based; conditions: 300 nM, 48 h, vs vehicle
Method: Fig. 3 Chk2-dependent role of 4DPG in modulating p53 and repressing Vimentin expression in 5-FU-R cells. A Immunocytochemistry results showing the Vimentin expression level in SW-620/5-FU-R cells treated/transfected with scramble, SiChk2, scramble plus 4DPG, SiChk2 plus 4DPG, vehicle, PV1019, 4DPG, and PV1019 plus 4DPG for 48 h. Scale bars: 50 µm. […] C Matrigel invasion assay results showing invaded HCT-116/5-FU-R and SW-620/5-FU-R cells following 48 h of transient transfection with GFP and GFP-Chk2 plasmid construct. Scale bars: 50 µm. D Quantification of the number of invaded cells per field from the above experimental conditions. n = 3, error bars, mean ± SD; *P < 0.05, ***P < 0.001. E Immunocytochemistry results displaying Vimentin expression levels in HCT-116/5-FU-R and SW-620/5-FU-R cells after 48 h of transient transfection with pCDNA3 and/or HA-Chk2 plasmid construct. Scale bars: 50 µm. F Immunoprecipitation with Vimentin or p53 followed by western blotting analysis of p53 in SW-620/5-FU-R cells treated with vehicle and/or 4DPG (300 nM) for 48 h. G Cytosolic (left panel) and nuclear (right panel) extracts of SW-620/5-FU-R cells treated with vehicle and/or 4DPG (300 nM) for 48 h showing protein expression of Vimentin and p53. Tubulin and lamin expression was considered as endogenous loading controls for cytosolic and nuclear fractions, respectively.
Moreover, to gain mechanistic insights into how 4DPG-induced activation of Chk2 suppresses EMT and invasiveness, we examined the downstream substrates of Chk2. Tumor suppressor p53 acts as a direct substrate of Chk2 that regulates cell cycle, DNA repair, or apoptosis of cancer cells in response to DNA damage[27],[39]. We attempted to investigate whether there any molecular interaction takes place between Vimentin and p53 in these 5-FU-R cells. Our immunoprecipitation analysis unveiled that 4DPG potentially interrupted the association of Vimentin and p53 in SW-620/5-FU-R cells. […] Since 4DPG disrupted the Vimentin–p53 association, we were curious to see the consequences on p53 expression in various cellular compartments. We separated cytosolic and nuclear fractions of SW-620/5-FU-R cells treated with vehicle and/or 4DPG and conducted western blotting analysis considering relevant loading controls.
SW-620/5-FU-R cells seeded in 90-mm Petri dishes were treated with vehicle and/or 4DPG for 48 h, following overnight incubation. Cells were then harvested, washed with PBS; cytosolic and nuclear extracts were prepared following our established protocol[37],[56].

[2] = Pharmacokinetic study, single i.v. dose; format: in vivo; conditions: 5 mg/kg i.v. single dose, Balb/c mice
Method: Subsequently, to evaluate the exposure of 4DPG in healthy animals, we performed PK analysis in Balb/c mice by administering a single dose (5 mg/kg) of the compound intravenously.
The PK studies were performed following our standardized procedure with minor modifications. To determine the PK profile of 4DPG, healthy male Balb/c mice (body weight 25–30 g each) were employed in the study. Six animals were enrolled for each sampling time point and a total of 11 time points (0.083, 0.25, 0.5, 1, 2, 4, 6, 8, 12, 16, and 24 h) were involved in the study. Control group of mice were administered with saline and test groups of animals received a single dose of 4DPG (5 mg/kg, body weight) intravenously. After the successful injections of the molecule, 100 µL of plasma was collected from each animal enrolled at the above sampling time points and the plasma proteins were precipitated with 400 µL of acetonitrile. Following extraction into the solvent and subsequent filtration, the compound was analyzed using a 6410 triple-quadrupole LC–MS/MS system (Agilent Technologies, USA). Individual samples collected at each time point were quantified through single ion monitoring (SIM) by comparing with the standard calibration curve prepared using Agilent Mass Hunter software (version B.04.00) (detailed description is provided in Supplementary information file). Essential PK parameters such as half-life (t1/2), C initial (C0), area under the curve (AUC0–∞), volume of distribution (Vd), clearance (Cl), and mean residence time (MRT) were calculated utilizing noncompartmental pharmacokinetic data analysis.

SW-620/5-FU-R cells [3] = experiment: In situ fluorescent gelatin degradation assay (invadopodia); format: cell-based; conditions: 48 h, vs vehicle
Description: 4DPG, a podophyllotoxin class of natural product anticancer compound (Supplementary Fig. S2A) has been recently described by our research group for its potent antitumor and anti-metastatic properties against aggressive cancers[31],[32]. Further, 4DPG augments phosphorylation and activation of Chk2 (Thr68) leading to suppression of EMT and invasiveness of p53-defective cancer cells. To investigate the effect of 4DPG on phosphorylation and expression levels of Chk2 in HCT-116/5-FU-R, SW-620/5-FU-R, and HT-29/5-FU-R cells, we treated these cells for 48 h with increasing concentrations of the compound, and whole-cell lysates were subjected to western blotting analysis. […] To determine the effect of 4DPG on the invasion abilities of these 5-FU-R cells, we performed in situ fluorescent gelatin degradation assay following our pre-standardized protocol[31],[37]. In physiological conditions, this assay mimics the extracellular matrix degradation by aggressive tumor cells undergoing invasion–metastasis process.
Fig. 2 4DPG activates Chk2 and attenuates EMT in 5-FU-R CRC cells. […] G Quantification of the area of degradation through Image J software. n = 3, error bars, mean ± SD; ***P < 0.001. […]

With `COc1cc([C@@H]2c3cc4c(cc3C[C@H]3COC(=O)[C@@H]32)OCO4)cc(OC)c1O[C@@H]1O[C@H](CO)[C@@H](O)[C@H](O)[C@H]1O` [4DPG, 4′-demethyl-deoxypodophyllotoxin glucoside] the “augmentation in p53 expression, cytosolic fraction” value (SW-620/5-FU-R cells [1]) was 1.65 fold, the “decrease in Vimentin level, nuclear fraction” value (SW-620/5-FU-R cells [1]) was 20 fold and the “downregulation of Vimentin level, cytosolic fraction” value (SW-620/5-FU-R cells [1]) was 2.2 fold. For the same molecule, the “increase in p53, nuclear fraction” value (SW-620/5-FU-R cells [1]) was 2.2 fold, the “Area under curve (AUC0-t)” value [2] was 10068.884 ng·h/mL and the “Area under curve (AUC0-∞)” value [2] was 10104.05 ng·h/mL and 10104.053 ng·h/mL. For the same molecule, the “Clearance (Cl)” value [2] was 8.25 mL/min/kg, the “Half-life (t1/2)” value [2] was 39.2 min and the “Mean residence time (MRT)” value [2] was 18.4 min. The “Volume of distribution (Vd)” value [2] was 0.466 L/kg, the “C initial (C0)” value ([2]; plasma) was 10165.18 ng/mL and the “invadopodia formation and area of degradation over the gelatin matrix” value (SW-620/5-FU-R cells [3]) was “significantly reduced”.
